Four compounds from article PMC12052742, “Engineering a newly identified alcohol dehydrogenase from Sphingobium Sp. for efficient utilization of nicotinamide cofactors biomimetics” (Bioresources and Bioprocessing, 2025) can be followed below.

For series [1], the system named is NC(=O)c1ccc[n+]([C@@H]2O[C@H](COP(=O)([O-])OP(=O)(O)OC[C@H]3O[C@@H](n4cnc5c(N)ncnc54)[C@H](O)[C@@H]3O)[C@@H](O)[C@H]2O)c1. Description: Cofactor kinetic assay, WT. Format: biochemical, Sphingobium sp. SYK-6. To be noted: other: WT, cofactor (= label) varied, 1a fixed at 5 mM, pH 7.5, 30°C. The method, then: (§1) Specific activity of SpADH2 in substrate spectrum study was measured spectrophotometrically. PBS (pH 7.5) buffer was pre-heated at 30°C for 15 min. For NAD^+, 0.05 µg SpADH2 was added to the PBS buffer (100 µL), and a final concentration of 2 mM NAD^+ was added. For tsNCBs cofactor p-BANA^+, 5 µg SpADH2 and a final concentration of 7.5 mM p-BANA^+ was added. The mixture was carried out in a 96-well microplate, and a final concentration of 5 mM substrate was added to start the reaction. The microplate was incubated in 30°C for 1 h. Florescent probes (2-[2-(1,4-dihydro-1-methyl-3-quinolinyl)ethenyl]-1,3,3-trimethyl-3H-indolium) in a final concentration of 0.2 mM (100 µL) was added (Scheme S1), and the microplate was placed in a microplate reader immediately for measurement under 537 nm (Fomin et al. [2016]).
(§2) Kinetic analysis of SpADH2 and its variants were carried out following Michaelis-Menten equation or Michaelis-Menten excess substrate inhibition equation. For of the substrate kinetic assays, concentrations of cofactors were fixed at 5 mM for NAD^+ and 7.5 mM for p-BANA^+. For cofactor kinetic assays, the concentration of 1a was fixed at 5 mM.
(§3) Specific activity was determined spectrophotometrically as above except that gradient 1a (0−20 mM) or cofactor (0−35 mM) concentrations were applied.
(§4) Cofactor specificity ratio (CSR) represents the ratio of catalytic efficiency of p-BANA^+ to NAD^+ for each enzyme, and relative specificity (RS) stands for the CSR ratio of variants to WT (King et al. [2020]).

The test system of series [2] is SpADH2. Description: Preliminary evaluation of NCB usage in oxidation of syringyl alcohol (HPLC). Format: biochemical, Sphingobium sp. SYK-6. The following applies: preliminary assay: 1a 1 mM, NCB 10 mM, pH 7.0, 30℃, 1 h. The method, then: Sphingobium sp. SYK-6 belongs to genus Sphingomonas, and a search in UniProtKB identified 19 ADHs from this strain, including 5 PQQ-dependent and the remaining NAD^+/NADP^+-dependent enzymes. Two sequences annotated as aryl-alcohol dehydrogenases (SLG_34580 and SLG_24930) (Table. S1) were selected for heterologous expression (Fig. S1) and named SpADH1 and SpADH2, respectively. Their ability to utilize NCBs was assessed by oxidation of syringyl alcohol (1a) to produce syringaldehyde (1b) (Fig. 1a).
Fig. 1 (a) Reaction scheme of SpADH2-catalyzed oxidation of syringyl alcohol. (b) Specific activity of SpADH2 toward four NCBs. The evaluation of NCBs usage by SpADH2 was carried out under following conditions: 50 mM PBS buffer (pH 7.0) and 30℃, with 1a (1 mM) as substrate and 4 typical NCBs (10 mM) as cofactor. A total of 0.1 mg/mL enzyme was added to a 200 µL reaction mixture, and was analyzed by HPLC after 1 h reaction
Reaction samples were analyzed using Agilent 1260 Infinity II LC system under reversed phase condition. Column: Agilent C18 column. Analytical conditions for 1a and 1b: mobile phase: 50% water: 50% acetonitrile. The retention time for standard product 1b was 3.27 min, under flow rate of 1 mL·min^− 1and temperature of 30°C (Fig. S4).

Series [3] deals with SpADH2. Description: Cofactor spectrum of syringyl alcohol oxidation (HPLC specific activity), WT. The class given is biochemical, Sphingobium sp. SYK-6. The following applies: 1a 5 mM, cofactor 7.5 mM, pH 7.5, 30℃; for utilization of the tsNCB by SpADH2 (in words): 5 µg SpADH2, 1 h. As to the method:
Fig. 2 Cofactor spectrum of syringyl alcohol oxidation catalyzed by SpADH2. The darkness of the background color for each cofactor stands for the activity of SpADH2 utilizing various cofactors. (a) NAD(P) ^+ and NMN^+ are shown in purple background. (b) tsNCBs are shown in cyan background. The evaluation of cofactor spectrum of SpADH2 was carried out under following conditions: 50 mM PBS buffer (pH 7.5) and 30℃, with 1a (5 mM) as substrate and different cofactors (7.5 mM) as cofactor. For NAD(P)^+ and NMN^+, 0.05 µg SpADH2 was added, and for tsNCBs, 5 µg SpADH2 was added. The results were analyzed by HPLC after 1 h reaction
(§5) Specific activity of SpADH2 in cofactor spectrum study was determined by HPLC analysis. PBS (pH 7.5) buffer was pre-heated at 30°C for 15 min. For NAD(P)^+ and NMN^+, 0.05 µg SpADH2 was added to PBS buffer (100 µL). For tsNCBs, 5 µg SpADH2 was added. A final concentration of 7.5 mM cofactor was added to the reaction mixture. Finally, a final concentration of 5 mM substrate was added to start the reaction. The reactions were conducted at 30°C.
(§6) One unit of enzyme activity is defined as the amount of enzyme required to form 1 µmol 1b per minute at pH 7.5 and 30°C. Same reaction without cofactor was used as a blank control.

Series [4] deals with SpADH2 variant H43L. In words: Cofactor spectrum (HPLC specific activity), variant H43L. The class given is biochemical, Sphingobium sp. SYK-6. The following applies: 1a 5 mM, cofactor 7.5 mM, pH 7.5, 30℃, 5 µg enzyme. The method, then:
(§7) Fig. 8 Cofactor spectrums of SpADH2 and its variants. The darkness of color for each cofactor stands for the activity. For each cofactor cube, top left: WT, top right: H43L, bottom left: A290I, bottom right: H43L/A290I. (a) Natural cofactors and NMN^+ are shown in purple. (b) tsNCBs are shown in cyan. The evaluation of cofactor spectrum was carried out under following conditions: 50 mM PBS buffer (pH 7.5) and 30℃, with 1a (5 mM) as substrate and different cofactors (7.5 mM) as cofactor. For NAD(P)^+ and NMN^+, 0.05 µg enzyme was added, and for tsNCBs, 5 µg enzyme was added. The results were analyzed by HPLC after 1 h reaction
as §5, §6

In series [5] the test system is SpADH2 variant H43L. Description: Cofactor kinetic assay, H43L. Format: biochemical, Sphingobium sp. SYK-6. To be noted: cofactor (= label) varied, 1a fixed at 5 mM. The method, then:
as §1, §2, §3, §4

Series [6] relates to SpADH2 variant A290I. In words: Substrate kinetic assay, A290I. Format: biochemical, Sphingobium sp. SYK-6. The method, then: as §1, §2, §3, §4
The test system of series [7] is SpADH2 variant H43L/A290I. In words: Substrate kinetic assay, H43L/A290I. The class given is biochemical, Sphingobium sp. SYK-6. As to the method: as §1, §2, §3, §4
Series [8] deals with SpADH2 variant A290I. Description: Cofactor kinetic assay, A290I. Format: biochemical, Sphingobium sp. SYK-6. The method, then:
as §1, §2, §3, §4

Series [9] has as its target T1, SpADH2 WT (Sphingobium sp. SYK-6, UniProt G2IIZ8). In words: Cofactor kinetic assay, WT. The class given is biochemical. To be noted: cofactor (= label) varied, 1a fixed at 5 mM. The method, then:
as §1, §2, §3, §4

The test system of series [10] is SpADH2 variants (H43L, A290I, H43L/A290I). Description: Cofactor spectrum (HPLC specific activity), all variants together. Format: biochemical, Sphingobium sp. SYK-6. To be noted: 1a 5 mM, cofactor 7.5 mM, pH 7.5, 30℃. The method, then: as §7, §5, §6
Series [11] concerns the target T1, SpADH2 WT. Description: Substrate kinetic assay, WT. Format: biochemical. To be noted: 1a varied, cofactor (= label) fixed: 5 mM NAD^+ or 7.5 mM p-BANA^+. As to the method: as §1, §2, §3, §4
For series [12], the system named is SpADH2 variant H43L/A290I. Description: Cofactor kinetic assay, H43L/A290I. Format: biochemical, Sphingobium sp. SYK-6. To be noted: cofactor (= label) varied, 1a fixed at 5 mM. The method, then:
as §1, §2, §3, §4

For series [13], the system named is SpADH2 variant H43L. Description: Substrate kinetic assay, H43L. To be noted: 1a varied, cofactor (= label) fixed: 5 mM NAD^+ or 7.5 mM p-BANA^+. The class given is biochemical, Sphingobium sp. SYK-6. The method, then: as §1, §2, §3, §4
Series [14] has as its system SpADH2 variant H43L/A290I. Description: Cofactor spectrum (HPLC specific activity), variant H43L/A290I. Format: biochemical, Sphingobium sp. SYK-6. To be noted: 1a 5 mM, cofactor 7.5 mM, pH 7.5, 30℃, 5 µg enzyme. The method, then:
as §7, §5, §6

[15] abbreviates: 1a varied, cofactor (= label) fixed: 5 mM NAD^+ or 7.5 mM p-BANA^+.
Where [16] appears, read: substrate kinetics, cofactor = label.

T1 sequence (G2IIZ8 1-372): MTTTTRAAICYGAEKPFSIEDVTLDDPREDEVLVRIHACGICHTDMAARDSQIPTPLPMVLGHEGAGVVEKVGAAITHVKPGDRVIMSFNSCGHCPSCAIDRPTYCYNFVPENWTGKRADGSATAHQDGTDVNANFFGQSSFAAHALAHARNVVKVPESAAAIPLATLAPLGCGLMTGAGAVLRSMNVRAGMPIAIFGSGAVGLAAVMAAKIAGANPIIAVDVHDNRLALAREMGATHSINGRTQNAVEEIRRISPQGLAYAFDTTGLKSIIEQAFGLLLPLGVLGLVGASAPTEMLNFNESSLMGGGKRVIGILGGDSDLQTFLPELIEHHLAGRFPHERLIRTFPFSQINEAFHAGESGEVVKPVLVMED

Usually Km stands for the substrate concentration at which the rate is half of its maximum. As for SpADH2 WT (Sphingobium sp. SYK-6), the Km in series [1] came to 28 ± 3 µM.
With `NC(=O)c1ccc[n+](CCc2ccccc2)c1` [P2NA^+, 3-carbamoyl-1-phenethylpyridin-1-ium], the “utilization of the NCB by SpADH2 (in words)” value in series [2] is “could not be utilized”. The “utilization of the tsNCB by SpADH2 (in words)” value in series [3] is listed as “No detectable activity”. Also, the “utilization of the tsNCB (in words)” value in series [4] is recorded as “exhibited activity”.
Take `NC(=O)c1ccc[n+]([C@@H]2O[C@H](COP(=O)([O-])OP(=O)(O)OC[C@H]3O[C@@H](n4cnc5c(N)ncnc54)[C@H](O)[C@@H]3O)[C@@H](O)[C@H]2O)c1` [NAD^+, reference compound]: the kcat came out at 57.8 ± 1.2 min^− 1 in series [5]; 41.4 ± 1.4 min^− 1 in series [6] (setting [15]); 18.9 ± 0.2 min^− 1 in series [7] (setting [15]); 28.3 ± 0.6 min^− 1 in series [8] (cofactor (= label) varied, 1a fixed at 5 mM); 58.7 ± 1.5 min^− 1 in [9]; 134 ± 2.9 min^− 1 in series [11]. For the same compound, the kcat is recorded as 12.6 ± 0.2 min^− 1 in [12] and 102 ± 2.3 min^− 1 in series [13]. The Km in series [5] (pH 7.5, 30°C) turned out to be 99 ± 8 µM; in [8] (cofactor (= label) varied, 1a fixed at 5 mM, pH 7.5, 30°C), 9 ± 1 µM; in series [12] (pH 7.5, 30°C), 365 ± 25 µM. For the same compound, the “substrate inhibition (in words)” value in [6] (setting [16]) is reported as “no substrate inhibition was observed”. Moreover, in series [7] (setting [16]), the “fold improvement in substrate inhibition (Ki) vs WT” value is “up to 9 fold”. Also, the “fold higher catalytic efficiency (kcat/Km) than WT” value in series [8] (cofactor kinetics, cofactor = label) was determined as 1.5 fold. Besides, the “catalytic activity of all variants with the cofactor (in words)” value in [10] is “relatively lower catalytic activity”. Besides, the “specific activity of SpADH2 with the cofactor” value in series [3] (0.05 µg SpADH2, 1 h) came to 4.40 U/mg.
For `NC(=O)c1ccc[n+](CCCc2ccccc2)c1` [P3NA^+, 3-carbamoyl-1-(3-phenylpropyl)pyridin-1-ium], in series [14], the “utilization of the tsNCB (in words)” value is “acquired capability of utilizing”. Moreover, the “utilization of the NCB by SpADH2 (in words)” value in series [2] was “could not be utilized”. Besides, in series [3], the “utilization of the tsNCB by SpADH2 (in words)” value is “No detectable activity”.
